{"source": "ChEMBL document CHEMBL1151840", "about": "“Synthetic oligoribonucleotides containing arabinonucleotides act as agonists of TLR7 and 8” (Bioorg Med Chem Lett, 2009)", "key": {"PBMC [1]": {"system": "PBMC", "assay": "Stimulation of immune response in human PBMC assessed as induction of MIP1alpha production at 150 ug/ml after 24 hrs", "assay_type": "functional, cell-based"}, "[2]": {"target": "T1, Toll-like receptor 7 (Homo sapiens) (UniProt Q9NYK1)", "T1 sequence (whole entry)": "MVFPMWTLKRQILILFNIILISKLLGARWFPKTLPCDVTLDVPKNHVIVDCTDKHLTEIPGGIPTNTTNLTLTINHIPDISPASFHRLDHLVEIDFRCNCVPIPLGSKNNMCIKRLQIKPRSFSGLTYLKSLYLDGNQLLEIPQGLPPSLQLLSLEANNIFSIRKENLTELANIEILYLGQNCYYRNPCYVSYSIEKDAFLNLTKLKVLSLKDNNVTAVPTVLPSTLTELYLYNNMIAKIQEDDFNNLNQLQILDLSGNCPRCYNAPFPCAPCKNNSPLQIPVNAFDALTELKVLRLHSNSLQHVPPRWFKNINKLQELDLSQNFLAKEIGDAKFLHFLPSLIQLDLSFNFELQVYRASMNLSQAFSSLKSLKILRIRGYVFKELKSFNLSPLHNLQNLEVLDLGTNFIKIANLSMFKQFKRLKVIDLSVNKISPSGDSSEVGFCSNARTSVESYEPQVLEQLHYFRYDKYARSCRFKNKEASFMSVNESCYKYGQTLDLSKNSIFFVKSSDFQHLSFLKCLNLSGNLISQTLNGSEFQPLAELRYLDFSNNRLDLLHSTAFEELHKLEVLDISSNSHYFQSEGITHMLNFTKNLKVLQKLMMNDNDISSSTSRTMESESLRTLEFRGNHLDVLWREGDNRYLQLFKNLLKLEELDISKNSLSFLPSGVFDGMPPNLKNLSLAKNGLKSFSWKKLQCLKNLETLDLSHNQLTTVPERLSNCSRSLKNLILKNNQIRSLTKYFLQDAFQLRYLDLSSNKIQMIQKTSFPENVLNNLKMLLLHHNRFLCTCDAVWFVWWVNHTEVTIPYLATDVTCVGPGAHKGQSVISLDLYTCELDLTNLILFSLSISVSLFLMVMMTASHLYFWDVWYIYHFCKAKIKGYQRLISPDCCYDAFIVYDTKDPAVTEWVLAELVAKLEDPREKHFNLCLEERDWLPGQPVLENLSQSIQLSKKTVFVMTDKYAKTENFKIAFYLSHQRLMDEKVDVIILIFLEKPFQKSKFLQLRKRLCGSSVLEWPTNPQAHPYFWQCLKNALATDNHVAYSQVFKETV", "assay": "Agonist activity at human TLR7 expressed in HEK293XL cells assessed as NF-kappaB activation at 300 ug/ml after 18 hrs", "assay_type": "functional, cell-based"}, "PBMC [3]": {"system": "PBMC", "assay": "Stimulation of immune response in human PBMC assessed as induction of IL10 production at 150 ug/ml after 24 hrs", "assay_type": "functional, cell-based"}, "PBMC [4]": {"system": "PBMC", "assay": "Stimulation of immune response in human PBMC assessed as induction of MIP1beta production at 150 ug/ml after 24 hrs", "assay_type": "functional, cell-based"}, "Homo sapiens [5]": {"species_on_record": "Homo sapiens", "assay": "Stimulation of immune response in human pDC assessed as induction of IFNalpha production at 150 ug/ml after 24 hrs", "assay_type": "functional"}, "PBMC [6]": {"system": "PBMC", "assay": "Stimulation of immune response in human PBMC assessed as induction of RANTES production at 150 ug/ml after 24 hrs", "assay_type": "functional, cell-based"}, "Homo sapiens [7]": {"species_on_record": "Homo sapiens", "assay": "Stimulation of immune response in human pDC assessed as induction of MIP1beta production at 150 ug/ml after 24 hrs", "assay_type": "functional"}, "Homo sapiens [8]": {"species_on_record": "Homo sapiens", "assay": "Stimulation of immune response in human pDC assessed as induction of IL12 production at 150 ug/ml after 24 hrs", "assay_type": "functional"}, "Homo sapiens [9]": {"species_on_record": "Homo sapiens", "assay": "Stimulation of immune response in human pDC assessed as induction of IFN-gamma production at 150 ug/ml after 24 hrs", "assay_type": "functional"}, "Homo sapiens [10]": {"species_on_record": "Homo sapiens", "assay": "Stimulation of immune response in human pDC assessed as induction of TNFalpha production at 150 ug/ml after 24 hrs", "assay_type": "functional"}, "Homo sapiens [11]": {"species_on_record": "Homo sapiens", "assay": "Stimulation of immune response in human pDC assessed as induction of MIP1alpha production at 150 ug/ml after 24 hrs", "assay_type": "functional"}, "[12]": {"target": "T2, Toll-like receptor 8 (Homo sapiens) (UniProt Q9NR97)", "T2 sequence (whole entry)": "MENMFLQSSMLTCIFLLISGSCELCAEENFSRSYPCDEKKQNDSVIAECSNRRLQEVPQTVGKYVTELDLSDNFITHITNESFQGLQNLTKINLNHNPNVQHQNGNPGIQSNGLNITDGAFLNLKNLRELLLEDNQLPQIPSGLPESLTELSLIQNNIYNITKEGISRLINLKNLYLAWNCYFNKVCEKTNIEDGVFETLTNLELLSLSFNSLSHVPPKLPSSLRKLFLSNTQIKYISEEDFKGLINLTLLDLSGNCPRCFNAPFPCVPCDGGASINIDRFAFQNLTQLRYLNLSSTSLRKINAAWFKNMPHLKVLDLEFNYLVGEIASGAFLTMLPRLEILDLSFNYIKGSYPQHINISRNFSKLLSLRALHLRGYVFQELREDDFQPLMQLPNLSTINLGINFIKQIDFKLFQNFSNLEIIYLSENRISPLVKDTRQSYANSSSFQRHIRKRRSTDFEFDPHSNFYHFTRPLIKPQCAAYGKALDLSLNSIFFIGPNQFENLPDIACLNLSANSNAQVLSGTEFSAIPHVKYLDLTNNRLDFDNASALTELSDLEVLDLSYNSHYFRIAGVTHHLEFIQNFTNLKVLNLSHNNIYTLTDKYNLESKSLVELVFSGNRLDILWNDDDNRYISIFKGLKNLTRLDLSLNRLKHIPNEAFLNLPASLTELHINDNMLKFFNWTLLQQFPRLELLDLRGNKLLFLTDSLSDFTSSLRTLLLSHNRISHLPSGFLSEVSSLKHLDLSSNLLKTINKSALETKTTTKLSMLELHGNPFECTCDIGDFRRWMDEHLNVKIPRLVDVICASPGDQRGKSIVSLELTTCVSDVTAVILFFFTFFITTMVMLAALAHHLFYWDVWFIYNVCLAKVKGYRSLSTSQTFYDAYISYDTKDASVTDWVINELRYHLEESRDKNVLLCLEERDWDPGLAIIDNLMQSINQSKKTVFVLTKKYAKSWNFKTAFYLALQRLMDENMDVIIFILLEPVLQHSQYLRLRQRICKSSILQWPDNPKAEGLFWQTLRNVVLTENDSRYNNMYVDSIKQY", "assay": "Agonist activity at human TLR8 expressed in HEK293XL cells assessed as NF-kappaB activation after 18 hrs", "assay_type": "functional, cell-based"}, "PBMC [13]": {"system": "PBMC", "assay": "Stimulation of immune response in human PBMC assessed as induction of IL8 production at 150 ug/ml after 24 hrs", "assay_type": "functional, cell-based"}, "PBMC [14]": {"system": "PBMC", "assay": "Stimulation of immune response in human PBMC assessed as induction of IL1-beta production at 150 ug/ml after 24 hrs", "assay_type": "functional, cell-based"}, "PBMC [15]": {"system": "PBMC", "assay": "Stimulation of immune response in human PBMC assessed as induction of IL2R level at 150 ug/ml after 24 hrs", "assay_type": "functional, cell-based"}, "Mus musculus": {"system": "Mus musculus", "assay": "Stimulation of immune response in C57BL/6 mouse assessed as induction of serum IL12 production at 50 mg/kg, sc after 2 hrs by luminex multiplex assay", "assay_type": "functional, organism-based", "design": "dose 50 mg/kg"}, "PBMC [16]": {"system": "PBMC", "assay": "Stimulation of immune response in human PBMC assessed as induction of IL12 production at 150 ug/ml after 24 hrs", "assay_type": "functional, cell-based"}, "PBMC [17]": {"system": "PBMC", "assay": "Stimulation of immune response in human PBMC assessed as induction of IFNalpha production at 150 ug/ml after 24 hrs", "assay_type": "functional, cell-based"}, "PBMC [18]": {"system": "PBMC", "assay": "Stimulation of immune response in human PBMC assessed as induction of IFN-gamma production at 150 ug/ml after 24 hrs", "assay_type": "functional, cell-based"}, "PBMC [19]": {"system": "PBMC", "assay": "Stimulation of immune response in human PBMC assessed as induction of TNFalpha production at 150 ug/ml after 24 hrs", "assay_type": "functional, cell-based"}, "PBMC [20]": {"system": "PBMC", "assay": "Stimulation of immune response in human PBMC assessed as induction of MCP1 production at 150 ug/ml after 24 hrs", "assay_type": "functional, cell-based"}}, "note": "The source made the active and inactive calls. The rule behind the calls is not given here.", "data": [{"compound": "Nc1ccn([C@@H]2O[C@H](COP(=O)(S)O[C@H]3[C@@H](O)[C@H](n4cnc5c(N)ncnc54)O[C@@H]3COP(=O)(S)O[C@H]3[C@@H](O)[C@H](n4cnc5c(=O)[nH]c(N)nc54)O[C@@H]3COP(=O)(S)O[C@H]3[C@@H](O)[C@H](n4ccc(=O)[nH]c4=O)O[C@@H]3COP(=O)(S)O[C@H]3[C@@H](O)[C@H](n4cnc5c(=O)[nH]c(N)nc54)O[C@@H]3COP(=O)(S)O[C@H]3[C@@H](O)[C@H](n4ccc(=O)[nH]c4=O)O[C@@H]3COP(=O)(S)O[C@H]3[C@@H](O)[C@H](n4cnc5c(=O)[nH]c(N)nc54)O[C@@H]3COP(=O)(S)O[C@H]3[C@@H](O)[C@H](n4ccc(=O)[nH]c4=O)O[C@@H]3COP(=O)(S)O[C@H]3[C@@H](O)[C@H](n4ccc(=O)[nH]c4=O)O[C@@H]3COP(=O)(S)O[C@H]3[C@@H](O)[C@H](n4cnc5c(=O)[nH]c(N)nc54)O[C@@H]3COP(=O)(S)O[C@H]3[C@@H](O)[C@H](n4ccc(=O)[nH]c4=O)O[C@H]3CO)[C@@H](OP(=O)(S)OCC(O)COP(=O)(S)O[C@H]3[C@@H](O)[C@H](n4ccc(N)nc4=O)O[C@@H]3COP(=O)(S)O[C@H]3[C@@H](O)[C@H](n4cnc5c(N)ncnc54)O[C@@H]3COP(=O)(S)O[C@H]3[C@@H](O)[C@H](n4cnc5c(=O)[nH]c(N)nc54)O[C@@H]3COP(=O)(S)O[C@H]3[C@@H](O)[C@H](n4ccc(=O)[nH]c4=O)O[C@@H]3COP(=O)(S)O[C@H]3[C@@H](O)[C@H](n4cnc5c(=O)[nH]c(N)nc54)O[C@@H]3COP(=O)(S)O[C@H]3[C@@H](O)[C@H](n4ccc(=O)[nH]c4=O)O[C@@H]3COP(=O)(S)O[C@H]3[C@@H](O)[C@H](n4cnc5c(=O)[nH]c(N)nc54)O[C@@H]3COP(=O)(S)O[C@H]3[C@@H](O)[C@H](n4ccc(=O)[nH]c4=O)O[C@@H]3COP(=O)(S)O[C@H]3[C@@H](O)[C@H](n4ccc(=O)[nH]c4=O)O[C@@H]3COP(=O)(S)O[C@H]3[C@@H](O)[C@H](n4cnc5c(=O)[nH]c(N)nc54)O[C@@H]3COP(=O)(S)O[C@H]3[C@@H](O)[C@H](n4ccc(=O)[nH]c4=O)O[C@@H]3CO)[C@H]2O)c(=O)n1", "note": "(stereo in doubt; 6)", "values": [{"measurement": "Activity", "setting": "PBMC [1]", "result": "Active"}, {"measurement": "Activity", "setting": "[2]", "result": "inactive"}, {"measurement": "Activity", "setting": "PBMC [3]", "result": "Active"}, {"measurement": "Activity", "setting": "PBMC [4]", "result": "Active"}, {"measurement": "Activity", "setting": "Homo sapiens [5]", "result": "inactive"}, {"measurement": "Activity", "setting": "PBMC [6]", "result": "Active"}, {"measurement": "Activity", "setting": "Homo sapiens [7]", "result": "Active"}, {"measurement": "Activity", "setting": "Homo sapiens [8]", "result": "Active"}, {"measurement": "Activity", "setting": "Homo sapiens [9]", "result": "Active"}, {"measurement": "Activity", "setting": "Homo sapiens [10]", "result": "Active"}, {"measurement": "Activity", "setting": "Homo sapiens [11]", "result": "Active"}, {"measurement": "Activity", "setting": "[12]", "result": "Dose-dependent effect"}, {"measurement": "Activity", "setting": "PBMC [13]", "result": "Active"}, {"measurement": "Activity", "setting": "PBMC [14]", "result": "Active"}, {"measurement": "Activity", "setting": "PBMC [15]", "result": "Active"}, {"measurement": "Activity", "setting": "Mus musculus", "result": "inactive"}, {"measurement": "Activity", "setting": "PBMC [16]", "result": "Active"}, {"measurement": "Activity", "setting": "PBMC [17]", "result": "Active"}, {"measurement": "Activity", "setting": "PBMC [18]", "result": "Active"}, {"measurement": "Activity", "setting": "PBMC [19]", "result": "Active"}, {"measurement": "Activity", "setting": "PBMC [20]", "result": "Active"}]}]}
